Assay results published in US20040039211A1, “Tetrapyrroles” (DUKE UNIVERSITY AND NATIONAL JEWISH MEDICAL AND RESEARCH …, priority 2000, published 2004).
Read-outs that look alike come from different tables or passages of the source. Marks after values point to notes of the source that are not given here.

Key:
[1] = Hydrolysis / dissociation of the complex in methanol/aqueous or water solution; format: physicochemical; conditions: water
Method: Uv/vis Spectroscopy. […] Also the effects of EDTA, H2O2, and the methanol/water ratio on the stability of the manganese(III) complex were examined. […] […] 79:699 (1960)). When needed the biliverdin and biliverdin dimethylester as well as their reduced forms bilirubin and bilirubin dimethylester were studied. […] In a week, at 25° C., only 14% of the complex dissociated. When the water content was increased to 43%, half the complex dissociated in a week.

[2] = pH* titration / protonation of the ligand; format: physicochemical; conditions: 90/10 methanol/aqueous solution, 0.01 M tris and Pipes buffer
Method: Uv/vis Spectroscopy. […] Also the effects of EDTA, H2O2, and the methanol/water ratio on the stability of the manganese(III) complex were examined. […] Tris and Pipes buffers along with 1.0 M methanol/aqueous (90/10) solution of HCl were used for pH^* adjustments in methanol/aqueous solutions. The pH^* readings were measured on an Oakton pH-Meter equipped with a Denver Instruments combination glass electrode that was calibrated in methanol/water (90/10, v/v) buffer solutions: 10 mM oxalic acid/10 mM ammonium oxalate (pH^*=3.59) and 10 mM succinic acid/lithium hydrogen succinate (pH^*=6.55) (De Ligny et al. A. Rec. Trav. Chim. Pays-Bas 79:699 (1960)). When needed the biliverdin and biliverdin dimethylester as well as their reduced forms bilirubin and bilirubin dimethylester were studied.
Uv/Vis Spectroscopy. At pH^* 7.4 biliverdin dimethylester is in a fully deprotonated form, BVDME^3−. […] Carboxyl groups are separated from the main chromophores by two methylene groups, so that their ionization is not detectable spectrophotometrically. Thus the spectra of biliverdin and its ester are the same (Gray et al, J. Chem. Soc. 2276 (1961); Kuenzle et al. Biochem. J. 130:1147 (1972); O'Carra, Nature 899 (1962)). […] The kinetic trace recorded upon fast mixing of the 30 μM BVDME^3− with 75 μM or 150 μM MnCl2, fits to a single-exponential equation with a zero intercept. […]

[3] = tested on: SOD-deficient E. coli JI132; test: Aerobic growth of SOD-deficient E. coli in minimal medium; format: cell-based; conditions: minimal (five amino acids) medium
Method: FIG. 13. […] The 20 mM ethanolic/albumin solution of compound was diluted into the medium. Also the growth of SOD-deficient E. coli was followed in the presence of 0.15% ethanol only (squares).
SOD activity can be monitored in the presence and absence of EDTA using the method of McCord and Fridovich (J. Biol. Chem. 244:6049 (1969)). The efficacy of a mimetic can also be determined by measuring the effect of the mimetic on the aerobic growth of a SOD null E. coli strain versus a parent strain. Specifically, parental E. coli (AB1157) and SOD null E. coli. […]
Effects on E. coli. E. coli strains AB1157 (SOD-proficient, wild type) and JI132 (SOD-deficient, sodAsodB) were obtained from J. A. Imlay (Imlay et al, J. Bacteriol. 169:2967 (1987)). […] Cultures were treated as previously described (Faulkner et al, J. Biol. Chem. 269:23471 (1994); Benov et al, J. Biol. Chem. 273:10313 (1998)). Due to the low water solubility, the compounds were solubilized with albumin in medium at a 1:1 molar ratio. Albumin itself had no effect on growth in the concentration range employed. Since methanol was toxic to the SOD-deficient strain of E. coli even when present in medium at 0.15%, the stock solutions of the compounds were prepared in ethanol.

[4] = SOD activity, xanthine oxidase/cytochrome c method; format: biochemical; conditions: absence of EDTA
[5] = SOD activity, xanthine oxidase/cytochrome c method; format: biochemical; conditions: for SOD-like activity (in words): 0.05 M phosphate buffer, pH 7.8, 0.1 mM EDTA
Method: FIG. 12. […] The v0 is the rate of reduction of 10 μM cytochrome c by O2. The vi is the rate of reduction of cytochome c inhibited by the porphyrin catalyst in the presence of 0.1 mM EDTA in 0.05 M tris buffer at pH 7.8. 40 μM xanthine. ˜2 nM xanthine oxidase at 25° C. The total volume of the assay solution is 3 mL.
SOD Activity. Catalysis of the dismutating of O2 in vitro was followed by the xanthine oxidase/cytochrome c method (McCord et al, J. Biol. Chem. 244:6049 (1969)).
Dismutation of superoxide anion, O2^−. Assays were conducted in 0.05 M aqueous phosphate buffer, pH 7.8, 0.1 mM EDTA, ±15 μg/mL of catalase, ±albumin. Rate constants for the reaction with O2^−were based upon the competition of the compounds with cytochrome c.
(§1) Two metallotetrapyrroles were tested for antioxidant activity, in vitro. In particular, the compounds were assayed for their ability to dismutate superoxide in the indirect method that utilizes xanthine and xanthine oxidase to generate superoxide and cytochrome c reduction as indicator of superoxide flux. […] The compounds were also assayed for their ability to prevent lipid peroxidation of rat brain homogenates by iron and ascorbate. The mixture of iron and ascorbate generates reactive oxygen species that oxidize biological lipids and these oxidized lipids can be detected as species that react with thiobarbituric acid (TBARS).
a) SOD activity determined using a xanthine oxidase/cytochrome c assay

[6] = Cyclic voltammetry, metal-centered redox potential; format: physicochemical; conditions: Mn(III)/Mn(II) couple; for E1/2, V vs Ag/AgCl: 90/10 (v/v) methanol/aqueous solution, pH* 7.9
Method: Manganese(III) Salen. The compound was prepared by the published procedure (Boucher, J. lnorg. Nucl. Chem. 36:531 (1974)). The uv/vis in water: ε235=3.70×10^4 cm^−1 M^−1, ε279=1.70×10^4 cm^−1 M^−1, ε397=4.60×10^3 cm^−M^−1. The elemental analysis: Anal. Calcd for Mn^IIIsalenCl, C16H14N2O2MnCl: C, 53.88; H, 3.96; N; 7.85. Found: C, 54.02; H, 4.06; N, 7.85. […] Based on the E1/2 of Mn^IIITM-2-PyP^5+, ferrocenemethanol and of K3Fe(CN)6 in water and methanol, the redox potential of Mn^III salen^+ in water was calculated to be E1/2=−0.13 V vs NHE.
Electrochemistry of the Manganese(III) Biliverdin Dimethylester. Measurements were made using a CH Instruments model 600 voltammetric analyzer as described previously(Batinic-Haberle et al, Inorg. Chem. 38:4011 (1999)). A three-electrode system in a small volume (0.5-3.0 mL), with a 3 mm diameter glassy carbon button working electrode (Bioanalytical Systems), Ag/AgCl reference electrode (3 M NaCl, Bioanalytical Systems), and a Pt wire (0.5 mm) as auxiliary electrode, were used. The cyclic votammetry was performed on 0.5 mM (per manganese) methanol/aqueous (90/10, v/v) solutions of the compounds investigated. The ionic strength was kept at 0.10 M (NaCl), and 0.05 M tris buffer was used for pH^* adjustment. For calibration purposes, compounds of different hydrophilicities, […], (Kolthof et al, J. Phys. Chem. 39:945 (1935)) ferrocenemethanol and Mn^IIITM-2-PyP^5+ were studied in both aqueous and methanol/aqueous (90/10, v/v) solutions (I=0.10 M NaCl, 0.05 M tris buffer, pH^* 7.9). In all cases the measured E1/2 was 170 mV more positive in methanolic than in aqueous solution and this value was used to predict the redox potential in aqueous solution from measurement in methanol/aqueous solution.

[7] = Degradation by H2O2 followed by uv/vis spectroscopy; format: physicochemical; conditions: pH 7.8; for fraction degraded by H2O2: 4.4 h, 60 μM
Source text: Uv/vis Spectroscopy. […] Also the effects of EDTA, H2O2, and the methanol/water ratio on the stability of the manganese(III) complex were examined. […] 79:699 (1960)). When needed the biliverdin and biliverdin dimethylester as well as their reduced forms bilirubin and bilirubin dimethylester were studied. At μM concentrations, manganese(III) and iron(III) porphyrins are degraded by H2O2 in aqueous solution. pH 7.8 (Batinic-Haberle et al, Inorg. Chem. 38:4011 (1999), Everett et al, J. Trans. Faraday Soc. 49:410 (1953)). […] The reaction was followed in 90/10, v/v methanouaqueous solution at pH^* 7.9. […] The uv/vis spectroscopy indicated degradation via the reduction of biliverdin to bilirubin followed by loss of metal (Gray et al, J. Chem. Soc. 2276 (1961); Kuenzle et al, Biochem. J. 130:1147 (1972); […], Nature 899 (1962)). The interaction of biliverdin and bilirubin with H2O, was also followed in 0.05 M tris buffer, pH 7.8. As observed for its metal complex, biliverdin undergoes reduction by H2O2 via bilirubin. Under pseudo-first order conditions (6 mM to 60 mM H2O2, 60 μM biliverdin), the second-order rate constant was k=3×10^-3 M^-1 s^-1. Bilirubin is more resistant to H2O2 than biliverdin or its metal complex. The disappearance of bilirubin was followed at 435 nm (Gray et al, J. Chem. Soc. 2268 (1961)). Under conditions given above and at 60 mM H2O2, about 40% of the biliverdin and 14% of bilirubin was degraded within 4.4 hours, and about 14% of the complex was degraded inside 80 min.

[8] = H4BV^+; literature (Gray et al; Kuenzle et al; O'Carra); cited from earlier work
rat brain homogenates = test: Lipid peroxidation of rat brain homogenates by iron/ascorbate (TBARS); format: biochemical; conditions: concentration that reduced lipid peroxidation by one-half
Method: The ability of mimetics to inhibit lipid peroxidation can be assessed as described by Day et al, Free Rad. Biol. Med. 26:730 (1990). Iron and ascorbate can be used to initiate lipid peroxidation in tissue homogenates and the formation of thiobarbituric acid reactive species (T BARS) measured.
as §1, with “(TBARS). Both compounds could inhibit the formation of TBARS and this ability correlated with their superoxide dismutase (SOD) activity (Table 5).” for “(TBARS).”
b) Lipid peroxidation was initiated in rat brain homogenates with iron/ascorbate and the IC50 is the concentration of compound that reduced lipid peroxidation by one-half.

[9] = Mn(III)/Mn(II) couple; aqueous solution (pH 7.8, 0.1 M NaCl); Ref 4; cited from earlier work
[10] = Ref 4, cited from earlier work

C=CC1=C(C)C2=CC3=NC(=Cc4c(CCC(=O)O)c(C)c5[n]4[Mn]([O]C4=NC(=Cc6c(C)c(CCC(=O)O)c7[n]6[Mn]([O]C6=NC(=C5)C(C=C)=C6C)[N]5C(=O)C(C=C)=C(C)C5=CC5=NC(=C7)C(CCC(=O)O)=C5C)C(C=C)=C4C)[N]2C1=O)C(CCC(=O)O)=C3C [(Mn^IIIBV)2, Mn^III Biliverdin]
stability in water solution [1]: lacks adequate stability in water solution

C=CC1=C(C)/C(=C/C2=NC(=C\c3[nH]c(/C=C4/NC(=O)C(C)=C4C=C)c(C)c3CCC(=O)OC)/C(CCC(=O)OC)=C2C)NC1=O [BVDME^3−, Biliverdin IX dimethylester, reference compound]
pH* region in which protonation occurs [2]: below 4 | effect on SOD-deficient E. coli growing under aerobic conditions (in words) [3]: neither beneficial nor toxic

[Cl-].[Mn+3].[O-]c1ccccc1C=NCCN=Cc1ccccc1[O-] [Mn^III/IIsalen^−/0, Manganese(III) Salen, reference compound]
SOD specific activity [4]: 700^f U/mg | kcat, O2^− dismutation ([4]; 25° C.): 6.0 × 10^5f M^−1 s^−1 | SOD-like activity (in words) [5]: observed only in the absence of chelator | E1/2, V vs Ag/AgCl [6]: −0.23 V vs Ag/AgCl | E1/2, V vs NHE ([6]; extrapolated/calculated redox potential in aqueous solution): −0.13 V vs NHE

C=CC1=C(C)/C(=C/c2[nH]c(Cc3[nH]c(/C=C4\NC(=O)C(C)=C4C=C)c(C)c3CCC(=O)O)c(CCC(=O)O)c2C)NC1=O [bilirubin, bilirubin IX]
fraction degraded by H2O2 [7]: about 14%

C=CC1=C(C)/C(=C/C2=NC(=C\c3[nH]c(/C=C4\NC(=O)C(C)=C4C=C)c(C)c3CCC(=O)O)/C(CCC(=O)O)=C2C)NC1=O [biliverdin, biliverdin IX]
pKa [8]: ~3 | SOD-like activity (in words) [5]: Neither biliverdin nor bilirubin showed any observable SOD-like activity | second-order rate constant k of reaction with H2O2 ([7]; 0.05 M tris buffer, 6 mM to 60 mM H2O2, 60 μM): 0.003 M⁻¹ s⁻¹ | fraction degraded by H2O2 [7]: about 40%

manganese (III) bilirubin ditaurate [MnBRDT]
SOD Activity ([5]; xanthine oxidase/cytochrome c assay): 6.2 USOD/mg | IC50 (rat brain homogenates): 70 µM

manganese(III) tetrakis(N-methylpyridinium-2-yl)porphyrin [Mn^III/IITM-2-PyP^5−4−]
E1/2, V vs NHE [9]: −0.22 V vs NHE | E1/2, V vs Ag/AgCl [6]: −0.12 V vs Ag/AgCl | kcat, O2^− dismutation ([10]; 25° C.): 6.0 × 10^7a M^−1 s^−1 | SOD specific activity [10]: 8.500^a U/mg
